The values that follow come from paper PMC3177992 (Chemical research in toxicology, 2011).

What all share (format): in vitro ADME
One series deals with T1, UGT1A1 (Homo sapiens, UniProt P22309).
T1 sequence (P22309 26-533): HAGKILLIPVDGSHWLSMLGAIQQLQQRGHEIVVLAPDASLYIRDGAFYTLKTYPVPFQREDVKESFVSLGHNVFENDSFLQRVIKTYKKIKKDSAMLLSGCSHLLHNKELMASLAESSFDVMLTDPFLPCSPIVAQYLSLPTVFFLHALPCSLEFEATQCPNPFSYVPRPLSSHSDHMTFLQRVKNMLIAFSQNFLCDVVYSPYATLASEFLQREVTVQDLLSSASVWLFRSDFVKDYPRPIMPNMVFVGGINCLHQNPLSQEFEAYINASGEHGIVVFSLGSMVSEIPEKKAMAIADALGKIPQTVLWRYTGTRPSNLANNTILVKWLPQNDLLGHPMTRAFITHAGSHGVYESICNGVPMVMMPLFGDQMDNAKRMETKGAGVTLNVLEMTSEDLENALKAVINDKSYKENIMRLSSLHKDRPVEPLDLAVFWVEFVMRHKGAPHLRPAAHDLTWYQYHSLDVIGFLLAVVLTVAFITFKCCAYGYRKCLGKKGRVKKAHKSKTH
Kind of series: Glucuronidation assay, UGT1A1-over-expressing HEK293 cell homogenate.

The target of the next series is T2, UGT1A7 (Homo sapiens, UniProt Q9HAW7).
T2 sequence (Q9HAW7 26-530): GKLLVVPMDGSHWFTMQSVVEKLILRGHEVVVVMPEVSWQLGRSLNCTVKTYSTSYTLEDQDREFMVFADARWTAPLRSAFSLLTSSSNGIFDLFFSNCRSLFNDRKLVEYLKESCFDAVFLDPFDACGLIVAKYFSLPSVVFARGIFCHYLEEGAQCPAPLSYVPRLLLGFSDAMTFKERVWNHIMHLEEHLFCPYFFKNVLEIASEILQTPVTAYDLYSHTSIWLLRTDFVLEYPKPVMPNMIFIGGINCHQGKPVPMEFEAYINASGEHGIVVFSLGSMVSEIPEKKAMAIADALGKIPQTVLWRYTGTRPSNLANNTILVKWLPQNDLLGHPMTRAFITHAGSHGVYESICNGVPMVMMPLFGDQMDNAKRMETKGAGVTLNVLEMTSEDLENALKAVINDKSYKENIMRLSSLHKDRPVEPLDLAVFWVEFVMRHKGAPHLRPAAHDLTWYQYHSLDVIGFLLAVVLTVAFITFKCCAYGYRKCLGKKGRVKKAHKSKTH
Kind of series: Glucuronidation assay, UGT1A7-over-expressing HEK293 cell homogenate.

Another series concerns the target T3, UGT1A8 (Homo sapiens, UniProt Q9HAW9).
T3 sequence (Q9HAW9 26-530): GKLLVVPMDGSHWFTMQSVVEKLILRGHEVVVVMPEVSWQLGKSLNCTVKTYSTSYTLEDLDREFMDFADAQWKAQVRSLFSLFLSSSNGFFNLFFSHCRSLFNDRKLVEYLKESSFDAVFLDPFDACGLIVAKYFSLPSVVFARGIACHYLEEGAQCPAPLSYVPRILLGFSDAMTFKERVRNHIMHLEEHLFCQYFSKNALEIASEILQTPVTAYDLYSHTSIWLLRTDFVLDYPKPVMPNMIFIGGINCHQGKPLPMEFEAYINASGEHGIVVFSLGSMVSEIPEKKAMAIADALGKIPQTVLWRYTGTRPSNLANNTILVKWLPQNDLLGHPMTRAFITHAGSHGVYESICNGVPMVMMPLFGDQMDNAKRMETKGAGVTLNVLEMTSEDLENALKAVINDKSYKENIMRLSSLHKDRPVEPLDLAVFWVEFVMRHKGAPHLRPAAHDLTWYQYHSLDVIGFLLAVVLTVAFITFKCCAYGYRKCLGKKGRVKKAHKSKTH
Kind of series: Glucuronidation assay, UGT1A8-over-expressing HEK293 cell homogenate.

Another series deals with T4, UGT1A9 (Homo sapiens, UniProt O60656).
T4 sequence (O60656 26-530): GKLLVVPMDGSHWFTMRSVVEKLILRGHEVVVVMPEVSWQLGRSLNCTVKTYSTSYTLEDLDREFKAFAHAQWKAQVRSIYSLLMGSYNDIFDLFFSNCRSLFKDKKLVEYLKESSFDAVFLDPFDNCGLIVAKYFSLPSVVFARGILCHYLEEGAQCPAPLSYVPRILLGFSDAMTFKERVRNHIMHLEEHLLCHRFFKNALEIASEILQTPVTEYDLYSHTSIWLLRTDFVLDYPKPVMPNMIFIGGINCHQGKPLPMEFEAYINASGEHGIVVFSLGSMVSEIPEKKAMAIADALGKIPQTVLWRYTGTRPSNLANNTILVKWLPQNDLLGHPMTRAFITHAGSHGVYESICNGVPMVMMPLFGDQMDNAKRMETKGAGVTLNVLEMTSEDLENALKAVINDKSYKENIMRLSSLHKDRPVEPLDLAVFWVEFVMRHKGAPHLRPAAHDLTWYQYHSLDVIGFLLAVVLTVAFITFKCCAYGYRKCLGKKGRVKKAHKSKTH
Kind of series: Glucuronidation assay, UGT1A9-over-expressing HEK293 cell homogenate.

A further series deals with T5, UGT1A10 (Homo sapiens, UniProt Q9HAW8).
T5 sequence (Q9HAW8 26-530): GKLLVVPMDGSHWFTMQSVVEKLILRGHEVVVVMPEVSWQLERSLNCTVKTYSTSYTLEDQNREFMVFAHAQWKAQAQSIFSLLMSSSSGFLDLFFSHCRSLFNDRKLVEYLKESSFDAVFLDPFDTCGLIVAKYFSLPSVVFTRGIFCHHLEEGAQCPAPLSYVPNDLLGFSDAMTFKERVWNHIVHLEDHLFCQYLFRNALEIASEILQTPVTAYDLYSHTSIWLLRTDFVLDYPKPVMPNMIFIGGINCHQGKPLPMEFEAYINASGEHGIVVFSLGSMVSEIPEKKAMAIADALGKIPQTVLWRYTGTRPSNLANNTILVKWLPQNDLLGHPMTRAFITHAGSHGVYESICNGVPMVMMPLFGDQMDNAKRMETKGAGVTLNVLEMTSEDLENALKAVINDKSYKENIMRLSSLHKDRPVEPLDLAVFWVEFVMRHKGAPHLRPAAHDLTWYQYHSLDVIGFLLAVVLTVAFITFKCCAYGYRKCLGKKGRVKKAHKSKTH
Kind of series: Glucuronidation assay, UGT1A10-over-expressing HEK293 cell homogenate.

The next series has as its target T6, UGT2B7 (Homo sapiens, UniProt P16662).
T6 sequence (P16662 24-529): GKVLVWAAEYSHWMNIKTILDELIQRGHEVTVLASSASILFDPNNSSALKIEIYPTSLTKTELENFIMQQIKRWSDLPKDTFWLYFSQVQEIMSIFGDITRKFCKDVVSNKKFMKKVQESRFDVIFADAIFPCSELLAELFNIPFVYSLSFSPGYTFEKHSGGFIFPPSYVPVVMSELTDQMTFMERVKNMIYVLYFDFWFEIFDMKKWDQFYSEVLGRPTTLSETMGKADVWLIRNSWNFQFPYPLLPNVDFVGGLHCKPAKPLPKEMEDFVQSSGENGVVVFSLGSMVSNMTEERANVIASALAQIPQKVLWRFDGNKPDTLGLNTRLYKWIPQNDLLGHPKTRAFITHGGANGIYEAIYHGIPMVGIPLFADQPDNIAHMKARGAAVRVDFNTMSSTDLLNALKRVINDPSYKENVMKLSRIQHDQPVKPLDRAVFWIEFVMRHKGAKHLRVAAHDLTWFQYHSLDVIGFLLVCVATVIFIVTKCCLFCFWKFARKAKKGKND
Kind of series: Glucuronidation assay, UGT2B7-over-expressing HEK293 cell homogenate.

Setting [1] is: glucuronide formation from the respective diol enantiomer.

Take `O=C(O)[C@H]1O[C@@H](O[C@H]2c3cc4ccc5cccc6c7ccccc7c(c3C=C[C@@H]2O)c4c56)[C@H](O)[C@@H](O)[C@@H]1O` (relative stereo) [(+)-DB[a,l]P-11-Gluc, DB[a,l]P-(+)-trans-11-Gluc,12-ol]: the Michaelis constant (Km) – broadly, the substrate concentration at which the rate is half of its maximum – at UGT1A1 came to 76 ± 21 µM; at UGT1A7, 43 ± 7 µM; on UGT1A8, 194 ± 39 µM; on UGT1A9 it was 0.17 ± 0.01 µM; at UGT1A10, 33 ± 9.8 µM; on UGT2B7 it was 175 ± 25 µM. Also, the “ratio of (+)-DB[a,l]P-11-Gluc : (+)-DB[a,l]P-12-Gluc : (−)-DB[a,l]P-11-Gluc formation” value is 52 on UGT1A1 and 19 on UGT1A10. Also, the kcat/Km (as a rule, the turnover number divided by the Michaelis constant) at UGT1A1 (setting [1]) was 102 ± 25 M⁻¹ s⁻¹; on UGT1A7 (setting [1]) it was 3.83 ± 1.83 M⁻¹ s⁻¹; on UGT1A8 (setting [1]) it was 13.3 ± 2 M⁻¹ s⁻¹; on UGT1A9 (setting [1]) it was 49670 ± 2430 M⁻¹ s⁻¹; at UGT1A10 (setting [1]), 158 ± 33.3 M⁻¹ s⁻¹; at UGT2B7 (setting [1]) it was 6.33 ± 0.17 M⁻¹ s⁻¹. The “ratio of (+)-DB[a,l]P-11-Gluc : (−)-DB[a,l]P-11-Gluc formation” value was determined as 67 on UGT1A7, 48 at UGT1A8 and 30 on UGT1A9. For the same compound, the “fold higher activity (kcat/KM) of UGT1A9 than UGT1A1” value on UGT1A9 (comparing kcat/KM values) was “approximately 489 fold”. Besides, on UGT1A10 (comparing kcat/KM values), the “fold higher activity (kcat/KM) of UGT1A10 compared to UGTs 1A7 and 1A8” value is on record as 12–72 fold.
